As usually defined, the AC50 is the concentration at which the activity in the assay is half-maximal.

Calls of active or inactive are those of the source.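 How the source made its calls: active means signal falls with dose and the fitted half-maximal concentration is at or below twice the top valid tested dose; inconclusive means flat curve with 30 to 70% inhibition, or poor fit; inactive means wrong direction, flat within 30%, or potency beyond limit.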

The first test concerns the target Golgi-associated PDZ and coiled-coil motif-containing protein (Homo sapiens) (UniProt Q9HD26). Description: CAL PDZ domain peptide-binding inhibitors, dose response, biochemical, fluorescence polarization, untagged CAL PDZ, cherry-pick (AID 602267). Conditions: purified CAL PDZ, TMR-peptide fluorescence polarization, 1 h. For orientation: Polarisation of emitted light reports the rotation of a fluorescent probe.
In the case of `COc1ccc(S(=O)(=O)Nc2cc(SCC(=O)O)c(O)c3ccccc23)cc1`, the AC50 is 34.2 µM.
Turning to `O=C(O)CSc1cc(NS(=O)(=O)c2cccc([N+](=O)[O-])c2)c2ccccc2c1O`, the AC50 was 15.9 µM.
Same read-out and setting: the same measure for `COC(=O)c1ccccc1-c1c2ccc(=N)cc-2oc2cc(N)ccc12`: 2.03 µM.
Same read-out and setting: the same measure for `COc1ccc(OC)c(-c2c3cc(O)c(=O)cc-3oc3cc(O)c(O)cc23)c1`: 21.4 µM; for `CCOc1ccc(S(=O)(=O)Nc2cc(SCC(=O)O)c(O)c3ccccc23)cc1`: 39 µM.

Still in this test, the particulars now being: purified CAL PDZ, TMR-peptide fluorescence polarization, 1 h; at 16 µM (top of the series).
In the case of `COc1ccc2c(c1)c(=Cc1ccc(N(C)C)cc1)c1cc(-c3ccccc3)[n+](C)n12`, the “activity change, negative = inhibition” value was “inactive”.
On the same count and under the same terms, as for `O=C(c1ccccc1)C(c1ccccc1)c1ccccc1`, the entry is “inactive”.

Still in this test, the particulars now being: purified CAL PDZ, TMR-peptide fluorescence polarization, 1 h; at 50 µM (top of the series).
As to `FC(F)(F)c1cc(-c2cccs2)nc2ncnn12`, the “activity change, negative = inhibition” value is “inactive”.
The same measure, in the same setting: as for `O=C(Oc1c(CN2CCOCC2)cc(Cl)c2cccnc12)c1ccc(F)cc1`, the entry is “inactive”; as for `CC(C)Oc1ccc(C(=O)Nc2ccc(S(=O)(=O)N3CCN(C)CC3)cc2)cc1`, “inactive”.
On to `CSc1cccc(NC(=O)N2CCCC(CNS(=O)(=O)Cc3ccccc3)C2)c1` (stereo not drawn), for which the “activity change, negative = inhibition” value was “inactive”.
As for `CCOC(=O)C1=C(C)OC(N)=C(C#N)C1c1cccc(C)c1` (stereo not drawn), the “activity change, negative = inhibition” value was “inactive”.
On to `Cc1ccc(SCC(=O)NCc2ccc(F)cc2)cc1`, for which the “activity change, negative = inhibition” value is “inactive”.
Same read-out and setting: the same measure for `CC(=O)Nc1sc2c(c1C(c1ccccn1)N1CCN(C)CC1)CCCC2` (stereo not drawn): “inactive”.
Still for that read-out and setting: as for `C=CCN1C(=O)/C(=C/c2ccsc2)SC1=S`, the entry is “inactive”; as for `O=C(NCc1cccs1)c1cccn2c(=O)c3sccc3nc12`, “inactive”.
The same measure, in the same setting: the same measure for `C(=N\N1CCOCC1)/c1nc(-c2ccccc2)n2ccccc12`: “inactive”; for `O=C(c1ccc([N+](=O)[O-])cc1)N1CCC(Cc2ccccc2)CC1`: “inactive”; for `O=C(O)c1cccc(Nc2ccc([N+](=O)[O-])cn2)c1`: “inactive”.
`COc1ccc(Oc2nc3c(c(=O)n(C)c(=O)n3C)n2C)cc1`: the “activity change, negative = inhibition” value is “inactive”.
Turning to `O=C(CCN1C(=O)c2ccccc2C1=O)CN1CCOCC1`, the “activity change, negative = inhibition” value is “inactive”.
On the same count and under the same terms, the same measure for `COc1ccc(S(=O)(=O)N2CCOCC2)cc1NC(=O)CN1CCCCCC1`: “inactive”; for `O=P(O)(COc1ccccc1)COc1ccccc1`: “inactive”.
With `COc1ccc(CCn2c(=S)[nH]c3ccc(N4CCOCC4)cc3c2=O)cc1OC`, the “activity change, negative = inhibition” value was “inactive”.
Consider `CCC(C)NC(=O)C1CCCN(C(=O)Nc2ccc(F)cc2)C1` (stereo not drawn), for which the “activity change, negative = inhibition” value is “inactive”.
For the molecule `COc1ccc(-n2c(=S)[nH]c3c(sc(=S)n3-c3ccccc3)c2=O)c(OC)c1`, the “activity change, negative = inhibition” value is “inactive”.
Take `Cc1cc(C)c(C(=O)N2CCC3(CC2)OCCO3)c(C)c1`: the “activity change, negative = inhibition” value was “inactive”.
Consider `COc1ccc(-c2nc3ccccc3o2)cc1OC`, for which the “activity change, negative = inhibition” value was “inactive”.
Same read-out and setting: as for `O=C(c1ccccc1)c1c2c(cc3sc4ccccc4[n+]13)-c1cccc3cccc-2c13`, the entry is “inactive”; as for `Cc1cccc(CN2CCc3c([nH]c4ccccc34)C2CC(C)C)n1` (stereo not drawn), “inactive”; as for `CN(C)/N=C1\CCS(=O)(=O)c2sccc21`, “inactive”.
Turning to `COC(=O)C(C(=O)OC)c1ccc(N)cc1`, the “activity change, negative = inhibition” value is “inactive”.
On the same count and under the same terms, as for `COc1ccc(/C=C/C(=O)Nc2ccc3nc4n(c(=O)c3c2)CCCC4)cc1OC`, the entry is “inactive”; as for `FC(F)(F)Oc1ccc(NC(=S)NCCCN2CCOCC2)cc1`, “inactive”.
`CC(=O)Nc1cccc(NC(=O)CSc2nnc(NC(=O)c3ccco3)s2)c1`: the “activity change, negative = inhibition” value is “inactive”.
For the molecule `COc1cc(C(=O)NC(C)CCc2ccccc2)cc(OC)c1OC` (stereo not drawn), the “activity change, negative = inhibition” value was “inactive”.
As for `O=C(CN1C(=O)NC2(CCCC2)C1=O)Nc1ccc(F)c(F)c1F`, the “activity change, negative = inhibition” value is “inactive”.
On the same count and under the same terms, as for `COC(=O)c1ccc(CNC(=O)COC(=O)c2cc(Cl)nc(Cl)c2)cc1`, the entry is “inactive”.
On the same count and under the same terms, the same measure for `CCNS(=O)(=O)c1ccc(CCC(=O)N2CCCC2)cc1`: “inactive”; for `CCOC(=O)CCNC(=O)N1CCCC(CNS(=O)(=O)Cc2ccccc2)C1` (stereo not drawn): “inactive”; for `CC(=O)Nc1cc(NC(C)=O)cc(C(=O)OCC(=O)Nc2ccc(S(=O)(=O)NC3=NCCCCC3)cc2)c1`: “inactive”.
On the same count and under the same terms, as for `COc1ccccc1Oc1coc2cc(OC(=O)N3CCOCC3)ccc2c1=O`, the entry is “inactive”; as for `Cc1ccc(CN2CCN(Cc3nc4ccccc4nc3C)CC2CCO)cc1` (stereo not drawn), “inactive”; as for `Cc1ccc(-n2c(SCC(N)=O)nnc2-c2ccco2)cc1`, “inactive”.
For `O=S(=O)(c1cccc2ccccc12)N1CCCCC1`, the “activity change, negative = inhibition” value is “inactive”.
`C=CCOc1ccc2ccccc2c1CNn1cn[nH]c1=S`: the “activity change, negative = inhibition” value is “inactive”.
`Cc1cc(SC2CCOC2=O)nc2ccccc12` (stereo not drawn): the “activity change, negative = inhibition” value is “inactive”.
Same read-out and setting: as for `CC(NS(=O)(=O)c1ccc(Cl)c(Cl)c1)C(=O)OCC(=O)Nc1ccc2c(c1)OCO2` (stereo not drawn), the entry is “inactive”.
Same read-out and setting: as for `CCCCNC(=O)c1ccc(-n2c(=S)[nH]c3ccccc3c2=O)cc1`, the entry is “inactive”; as for `COc1ccc(OC)c(NC(=O)c2ccc(OC3CSC3)cc2)c1`, “inactive”; as for `COc1ccccc1NC(=O)c1c([N+](=O)[O-])cnn1C`, “inactive”.
The same measure, in the same setting: the same measure for `Cn1c(=O)c2c(nc(-c3ccc(N(CCCl)CCCl)cc3)n2C)n(C)c1=O`: “inactive”; for `O=C(Nc1nccs1)c1ccc(F)c(S(=O)(=O)N2CCOCC2)c1`: “inactive”; for `N/C(=N\OC(=O)Cc1ccccc1[N+](=O)[O-])c1cccnc1`: “inactive”.
Turning to `Cc1ccccc1S(=O)(=O)NC(=NCc1ccc(F)cc1)c1ccccc1`, the “activity change, negative = inhibition” value is “inactive”.
Same read-out and setting: the same measure for `CCOC(=O)c1ccc(N=C2SC(C(=O)NC)CC(=O)N2Cc2ccc(F)cc2)cc1` (stereo not drawn): “inactive”.
Still for that read-out and setting: the same measure for `Cc1[nH]c2ccccc2c1C(=O)CSc1nc2ncc(Cl)cc2[nH]1`: “inactive”; for `Cc1cccc(N=Nc2c(O)[nH]c3ccc(F)cc23)c1`: “inactive”.
On to `COc1ccc(CNCCc2c[nH]c3ccccc23)c(OC)c1OC`, for which the “activity change, negative = inhibition” value was “inactive”.
For `Brc1cccc(CNCC2CCCO2)c1` (stereo not drawn), the “activity change, negative = inhibition” value was “inactive”.
Consider `OCC1(CCOc2ccccc2)CCN(CCCn2cccn2)CC1`, for which the “activity change, negative = inhibition” value is “inactive”.
As to `O=C(NCc1ccccn1)Nc1ccc(F)c(Cl)c1`, the “activity change, negative = inhibition” value was “inactive”.
Same read-out and setting: the same measure for `CCOC(=O)c1c(CN2CCOCC2)oc2ccc(OC(C)=O)cc12`: “inactive”; for `COc1ccc(C(C)=O)cc1COC(=O)CNC(=O)c1ccccc1F`: “inactive”; for `CS(=O)(=O)c1ccc(Cl)c(NC(=O)COC(=O)c2c(Cl)cccc2Cl)c1`: “inactive”.
Still for that read-out and setting: as for `Cc1ccc(CNC2CCCCC2)s1`, the entry is “inactive”; as for `O=C(COc1ccccc1)N1CCCCCCC1`, “inactive”.
The same measure, in the same setting: as for `O=C(NCc1ccc(Cl)cc1)C(=O)NCC1OCCN1C(=O)c1ccc(Cl)cc1` (stereo not drawn), the entry is “inactive”; as for `O=C(NC12CC3CC(CC(C3)C1)C2)c1ccco1`, “inactive”.
Regarding `Cn1nc(C(=O)N2CCCc3ccccc32)c2ccccc2c1=O`, the “activity change, negative = inhibition” value is “inactive”.
On the same count and under the same terms, as for `COC(=O)[C@H]1[C@H]2C[C@@H]3c4[nH]c5cc(OC)ccc5c4CCN3C[C@H]2C[C@@H](OC(=O)/C=C/c2cc(OC)c(OC)c(OC)c2)[C@@H]1OC`, the entry is “inactive”.
With `Cc1cc(=O)n2c3ccccc3n(CC(O)CN3CCN(CCO)CC3)c2c1C#N` (stereo not drawn), the “activity change, negative = inhibition” value is “inactive”.
For the molecule `COc1cc(Cl)c(CN2CCCC(CO)(Cc3cccc(Cl)c3)C2)cc1OC` (stereo not drawn), the “activity change, negative = inhibition” value is “inactive”.
Still for that read-out and setting: the same measure for `CCCCC(CCC(=O)Nc1nccs1)C(=O)O` (stereo not drawn): “inactive”.
For `Cc1c(C(=O)OCC(=O)NC(=O)NC2CCCCC2)cccc1[N+](=O)[O-]`, the “activity change, negative = inhibition” value was “inactive”.
Consider `COC(=O)CN1C(=O)C(O)=C(C(C)=O)C1c1ccc([N+](=O)[O-])cc1` (stereo not drawn), for which the “activity change, negative = inhibition” value was “inactive”.
Still for that read-out and setting: the same measure for `Cc1ccc(C)c(N(CC(=O)NC(C)(C)C)C(=O)CCC(=O)Nc2nccs2)c1`: “inactive”.
Same read-out and setting: as for `COc1cc(S(=O)(=O)n2nc(C)cc2C)ccc1Cl`, the entry is “inactive”; as for `Cc1cccc(N(Cc2cc(=O)[nH]c3ccccc23)C(=O)C(C)C)c1`, “inactive”; as for `CCOC(=O)Cn1ncn(-c2ccc(OC(F)(F)F)cc2)c1=O`, “inactive”.
On to `CCOC(=O)/C(N=Nc1ccc2c(c1)OCO2)=C(\C)O`, for which the “activity change, negative = inhibition” value was “inactive”.
For `COC(=O)CN1C(=O)N/C(=C/c2cc(Cl)c(OC)c(OC)c2)C1=O`, the “activity change, negative = inhibition” value is “inactive”.
As to `Fc1ccc(-n2c(-c3ccc4ccccc4n3)n[nH]c2=S)cc1Cl`, the “activity change, negative = inhibition” value is “inactive”.

Source of the values: PubChem BioAssay AID602267 (Broad Institute, 2012).
